Measurements from PubChem BioAssay (NCI).
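Assay format: 96-well plates, 48-hour exposure. TGI: concentration producing complete growth inhibition.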

How the values were obtained:
Test in all cases: DTP human tumour cell line panel, 48 h
SK-MEL-28 melanoma = tested on: SK-MEL-28 melanoma
COLO 205 colon = tested on: COLO 205 colon
NCI-H460 lung = tested on: NCI-H460 lung
UACC-257 melanoma = tested on: UACC-257 melanoma
SN12C renal = tested on: SN12C renal
HOP-62 NSCLC = tested on: HOP-62 NSCLC
HCC-2998 colon = tested on: HCC-2998 colon
NCI-H23 lung = tested on: NCI-H23 lung
DU-145 prostate = tested on: DU-145 prostate
SF-268 CNS = tested on: SF-268 CNS
OVCAR-8 ovarian = tested on: OVCAR-8 ovarian
HS 578T breast = tested on: HS 578T breast
LOX IMVI melanoma = tested on: LOX IMVI melanoma
SNB-19 CNS = tested on: SNB-19 CNS
SK-MEL-5 melanoma = tested on: SK-MEL-5 melanoma
MDA-MB-435 = tested on: MDA-MB-435
SNB-75 CNS = tested on: SNB-75 CNS
HT29 colon = tested on: HT29 colon
CCRF-CEM leukemia = tested on: CCRF-CEM leukemia
MOLT-4 leukemia = tested on: MOLT-4 leukemia
RPMI-8226 leukemia = tested on: RPMI-8226 leukemia
SR leukemia = tested on: SR leukemia
NCI-H226 lung = tested on: NCI-H226 lung
ACHN renal = tested on: ACHN renal
SW-620 colon = tested on: SW-620 colon
BT-549 breast = tested on: BT-549 breast
MDA-N = tested on: MDA-N
SK-OV-3 ovarian = tested on: SK-OV-3 ovarian
HCT-15 colon = tested on: HCT-15 colon
RXF 393 renal = tested on: RXF 393 renal
SF-295 CNS = tested on: SF-295 CNS
PC-3 prostate = tested on: PC-3 prostate
EKVX NSCLC = tested on: EKVX NSCLC
CAKI-1 renal = tested on: CAKI-1 renal
UACC-62 melanoma = tested on: UACC-62 melanoma
OVCAR-4 ovarian = tested on: OVCAR-4 ovarian
A498 renal = tested on: A498 renal
OVCAR-5 ovarian = tested on: OVCAR-5 ovarian
MDA-MB-231 breast = tested on: MDA-MB-231 breast
K-562 leukemia = tested on: K-562 leukemia
NCI/ADR-RES ovarian = tested on: NCI/ADR-RES ovarian
U251 CNS = tested on: U251 CNS
MCF7 breast = tested on: MCF7 breast
HCT-116 colon = tested on: HCT-116 colon
786-0 renal = tested on: 786-0 renal
IGROV1 ovarian = tested on: IGROV1 ovarian
UO-31 renal = tested on: UO-31 renal
OVCAR-3 ovarian = tested on: OVCAR-3 ovarian
SK-MEL-2 melanoma = tested on: SK-MEL-2 melanoma
HOP-92 NSCLC = tested on: HOP-92 NSCLC
A549 NSCLC = tested on: A549 NSCLC
SF-539 CNS = tested on: SF-539 CNS
TK-10 renal = tested on: TK-10 renal
HL-60(TB) leukemia = tested on: HL-60(TB) leukemia
M14 melanoma = tested on: M14 melanoma
KM12 colon = tested on: KM12 colon
MALME-3M melanoma = tested on: MALME-3M melanoma
NCI-H522 lung = tested on: NCI-H522 lung

Measured: TGI

CC(=O)NCCc1c(-c2[nH]c3ccccc3c2CCNC(C)=O)[nH]c2ccccc12
not listed: HL-60(TB) leukemia | M14 melanoma | KM12 colon | MALME-3M melanoma | NCI-H522 lung
> 100 µM: all other assays above

CC12OC1(C)C1C(=O)OCC1C2=O (centres undefined)
69.2 µM: SR leukemia
72.4 µM: K-562 leukemia
55.4 µM: SN12C renal
71.5 µM: CAKI-1 renal
36 µM: CCRF-CEM leukemia
69.7 µM: MALME-3M melanoma
27.9 µM: NCI-H522 lung
54.3 µM: HL-60(TB) leukemia
84.6 µM: RXF 393 renal
94.1 µM: HS 578T breast
not listed: MOLT-4 leukemia | EKVX NSCLC
> 100 µM: all other assays above
